According to patent US20130039956A1, “USE OF NITROCARBOXYLIC ACIDS FOR THE TREATMENT, DIAGNOSIS AND PROPHYLAXIS OF AGGRESSIVE HEALING PATTERNS” (priority 2010, published 2013):

How the values were obtained:
[1] = test system: Human peripheral blood mononuclear cells (PBMCs); test: Adhesion of serum proteins and monocyte activation induced by coated silicone; type: cell-based; conditions: dip-coated silicone, PBMCs 3 days; compared with native FA
Procedure: In order to determine the effect of coating implant materials with nitro fatty acids to reduce adsorption of adhesion molecules and monocyte activation, sterile silicone sheets were out in small pieces and coated with respective nirocarboxylic acid and the corresponding native fatty acids by dip coating. Uncoated silicone pieces served as controls. For each fatty acid two sets of silicone pieces were bathed in freshly drawn human serum for 1 hour at 37° C., and another two sets were bathed in saline solutions. One set of both coated and uncoated pieces was analyzed immediately for adhesion proteins and the other set was placed in 96-well plates after rinsing the silicone pieces. Human peripheral blood mononuclear cells (PBMCs), isolated from three healthy subjects, were added to each well. Wells were incubated for 3 days under standard conditions. Culture supernatants were assayed for IL-1beta, IL-6, IL-8, and chemoattractant protein 1 (MCP-1) levels at the start and end of experiments.
Before analyzing the silicone pieces for protein adsorption, they were bathed in saline for 5 minutes. Thereafter, one side was rinsed with saline as performed for both sides in the set used for culturing. There was marked adsorption of fibrinogen and […] C5b-9 on the uncoated silicone. […] No protein was found on the surface of the nitro fatty acid-coated sample that was rinsed, thus, indicating the weak adherence of serum proteins.

[2] = test system: female Sprague-Dawley rats; test: Fibrogenesis in an in-vivo model of soft implant implantation; set-up: species or system rat; conditions: subcutaneous implants, 120 days, compared with native FA
Procedure: Silicone bag-gel miniprostheses (POLYTECH Health & Aesthetics GmbH, Dieburg, Germany) having a diameter of 2 cm and a volume of approximately 2 ml were used. […] The experimentally used implant models had two small tags which allowed the implants to be suspended during the coating procedures.
Each implant was treated in the following manner: cleaning by sonication for 2 min each in the following sequence of solvents: acetone, toluene, acetone, ethanol, and water. Implants were exposed to Piranha solution for 60 min and rinsed with deionized water. They were then immersed in a 20% aqueous solution of ammonium fluoride for 45 min to obtain a hydrogen-passivated Si surface. The ammonium fluoride solution was sparged with nitrogen for 15 min to remove dissolved oxygen. Prepared implants were transferred to a glass chamber filled with an inert atmosphere where they were suspended so that no part of their surface came in contact with the container. The container was filled with a 1-hexadecene solution and heated at 150° C. at a pressure of 2 Torr for 120 min. Prepared implants were cleaned in the following sequence of solvents: acetone, ethanol, and water. Formation of self assembled monolayer was controlled by measuring surface hydrophobicity; the contact angle was about 105°. Dry implants suspended in the container were then bathed in an ethanolic solution of oleic acid or nitro-oleic acid at a temperature of 40° C. for 120 min. Thereafter, the solution was allowed to run out slowly through an outlet at the bottom of the container. The emptying container was filled with inert gas in which the samples were maintained for 24 hours. Then samples were bathed three times in an ethanolic solution, followed by a final rinsing with sterile water. After drying, the container with the prepared implant was sterilized using ethylene oxide and stored at 20° C.
For in vivo testing, 24 uncoated and 24 coated implants were investigated in 24 female Sprague-Dawley rats (190-230 g). In the anesthetized animals, bilateral dorsal pockets in the subcutaneum were created by blunt dissection through paired paravertebral incisions. Each animal received one coated implant and one control implant on opposite sides, alternating sides on successive animals. Animals were housed and fed according to institutional standards for 120 days. Animals were sacrificed with chloroform. The implants and the adhering tissue were extracted by en bloc resection. The implants were cannulated and the liquid silicone gel was replaced by paraffin. Thereafter, the complete tissue block was prepared by standard means of histology, and stained with H&E or Masson's trichrome.

human dermal fibroblasts = test: Extra cellular matrix production (collagen-1) in response to TGF-β2 in dermal fibroblasts; type: cell-based; conditions: 10 and 50 μmol, TGF-β2 25 ng/ml, 48 hours; compared with native FA
Procedure: In order to determine whether PPRA gamma stimulation due to nitrated fatty acids plays a role in the inventive inhibition of an aggressive healing pattern to an irritating stimulus, human dermal fibroblasts were investigated. A dominant-negative PPAR gamma mutant (L466A) cell clone was generated by polymerase chain reaction-based site-directed mutagenesis. Presence of PPAR gamma or absence was investigated using a PPAR gamma antibody reaction which was determined using an enhanced chemiluminescence detection system. Furthermore, one cell series was incubated with a selective irreversible PPAR gamma ligand (GW9662, 1 μmol), which effectively blocks PPAR gamma receptors.
Sequential cultivation of human dermal fibroblasts was performed in EMEM containing 5 mM glucose supplemented with 10% FCS under standard cultivation conditions. Cells were allowed to grow to confluence in a 96-well plate. Wild-type fibroblasts and PPAR gamma deficient fibroblasts were investigated by a set-up of 2×10 sample sets comprising: (1) blank control; (2) stimulation control; (3) preincubation with the PPAR gamma antagonist GW9662 (Cayman Chemical); (4) preincubation with the PPAR agonist troglitazone (25 μmol). In 2×4 sample sets, native fatty acids were added to the medium to achieve a final concentration of 10 and 50 μmol, respectively; in another 2×4 sets the nitrated fatty acids were added to the medium in the same concentration, while 2×2 sets served as controls. In 10 of the sets, TGF-β2 was added to the culture medium at a concentration of 25 ng/ml. Cultivation was continued for 48 hours and then processed in order to analyze collagen-1 as measured by enhanced chemiluminescence detection of immuncomplexes.

fibroblasts = test: Biofouling and cell adherence at prosthetic materials (dip-coated polymer films); type: cell-based; conditions: compared with native FA (control)
Procedure: Polymer scaffolds (polyurethane, polyvinylchloride, polylactate) which are used as implant materials were investigated. Solid and porous (pore sizes ranging from 50 to 150 micrometer) films of pure polymer scaffolds were cut into pieces (5×5 mm). After cleaning with NaOH and ethanol, they were dip-coated with native and nitrocarboxylic acids. Dip-coated pieces were suspended in a tube filled with argon and heated at 60° C. for 24 hours in the dark. Film pieces with and without coating were placed in a borosilicate glass tube that allowed fixation of two margins of the film pieces at the wall of the glass tube, thus, enabling a upright standing position in the center of the tube. Tubes were filled with various solutions for 12 hours. Solutions consisted of the following: 0.9% saline; 2% bovine albumin; 2% bovine albumin with addition of either fibronectin or laminin; and bovine serum. At the end of the exposure time, tubes were gently washed twice with 0.9% saline solution. One set of films was analyzed for protein absorption using a specific antibody staining method. An identically prepared set of films was further processed for cell cultures. A suspension containing preincubated fibroblasts in 1% FCS was added to the film-containing tubes. The tubes were tilted and adjusted in such a position so that the films were in a vertical orientation within the suspension. […] Tubes had two openings at the upper half (of the tilt tubes) that allowed free exchange of the atmosphere above the solution with the surrounding atmosphere. Sets were incubated at standard conditions for 24, 48, and 96 hours, respectively. Thereafter, films were carefully removed and rinsed with 0.9% saline solution. The cellularity and the shape of the cells on both sides of the films were evaluated after staining (Gimsa) using a reflected light microscope.
Also: key: 0: not superior to native FA (control); +: Superior to native FA; ++: superior to both; +++: outstanding effect.

| SMILES | Relative effect on serum protein adhesion and monocyte activation [1] | Relative effect of surface coating on fibrogenesis around silicone implants [2] | Relative effect on collagen-1 production in response to TGF-β2 (human dermal fibroblasts) | Relative differences: effect on biofouling and cell adherence (fibroblasts) |
| --- | --- | --- | --- | --- |
| CCCCC=C(C=CC=CCCCCCCCC(=O)O)[N+](=O)[O-] [compound 11, 13-nitro-octadeca-9,11,13-trienoic acid] | + | + | + | + |
| CCCCCC/C=C(/CCCCCCCC(=O)O)[N+](=O)[O-] [compound 13] | + | + | + | + |
| CCCCCC=CCC=C(CC=CCC=CCCCC(=O)O)[N+](=O)[O-] [compound 14, 11-nitro-5,8,11,14-eicosatrienoic acid] | + | + | + | + |
| CCCCCC/C=C(\CCCCCCCC(=O)O)[N+](=O)[O-] [compound 16, 9-nitro-9-trans-hexadecenoic acid] | 0 | 0 | 0 | ++ |
| CCCCCC=CCC=C(CC=CC/C=C\CCCC(=O)O)[N+](=O)[O-] [compound 22, 11-nitro-cis-5,8,11,14-eicosatetraenoic acid] | + | ++ | ++ | + |
